Experimental data: ChEMBL document CHEMBL5728092, “Benzimidazole derivatives as modulators of ROR-gamma” (2020)

Target: T1, Nuclear receptor ROR-gamma (Homo sapiens, UniProt P51449)
T1 sequence (P51449 whole entry): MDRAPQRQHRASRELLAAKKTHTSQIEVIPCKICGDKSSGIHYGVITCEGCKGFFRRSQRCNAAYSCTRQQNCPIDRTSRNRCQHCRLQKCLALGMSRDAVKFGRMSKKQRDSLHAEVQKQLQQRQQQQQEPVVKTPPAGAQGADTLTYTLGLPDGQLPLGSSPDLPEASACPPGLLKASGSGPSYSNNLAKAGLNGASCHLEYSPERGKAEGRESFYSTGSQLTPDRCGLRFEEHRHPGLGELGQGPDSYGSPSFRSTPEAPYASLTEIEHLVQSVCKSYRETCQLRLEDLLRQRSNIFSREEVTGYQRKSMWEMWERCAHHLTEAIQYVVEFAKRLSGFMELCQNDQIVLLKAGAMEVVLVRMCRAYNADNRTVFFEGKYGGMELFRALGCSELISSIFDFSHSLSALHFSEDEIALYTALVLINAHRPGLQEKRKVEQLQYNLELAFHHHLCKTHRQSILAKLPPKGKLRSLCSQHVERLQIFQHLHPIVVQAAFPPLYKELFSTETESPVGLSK
Experiment: Binding Assay : Compounds described herein were tested for ability to bind to RORγ in a cell-free competition assay with commercially available radio-ligand (RL), 25-hydroxy [26,27-3H]-cholesterol (PerkinElmer, Cat. #NET674250UC), for a ligand binding site on a recombinant RORγ Ligand Binding Domain (LBD) protein expressed as a 6×His-Glutathione-S-Transferase (GST) fusion. The assay was performed in 96-well SPA plates (PerkinElmer, Cat. #1450-401) in 50 mM HEPES buffer, pH 7.4, containing 150 mM NaCl, 5 mM MgCl2, 10% (v/v) glycerol, 2 mM CHAPS, 0.5 mM β-octylglucopyranoside and 5 mM DTT. Tested compounds were dissolved in DMSO, and semi-log (3.162×) serial dilutions of the compounds were prepared in the same solvent. Two μL of the DMSO solutions were mixed with 28 μL of 8.6 nM 25-hydroxy [26,27-3H]-cholesterol and 50 μL of 24 nM RORγ LBD. The plate was shaken at 700 rpm for 20 min and incubated for 10 min at rt, after which 40 μL of poly-Lys YSi SPA beads (PerkinElmer, Cat. #RPNQ0010) were added to achieve […] of the beads per well. The plate was incubated on an orbital shaker for 20 min and then for 10 min without agitation at rt. SPA signal for tritium beta radiation was registered on PerkinElmer Microbeta plate reader. Percent inhibition values were calculated based on the high signal obtained with DMSO control and the low signal observed with 10 μM standard RORγ inverse agonist T0901317 (SigmaAldrich, Cat. #T2320). The percent inhibition vs. concentration data were fit into a four-parameter model, and IC50 values were calculated from the fit as the concentrations corresponding to the inflection points on the dose-response curves.

Row | Structure (SMILES) | Ki [nM]
1 | CCS(=O)(=O)c1ccc([C@H](CO)NC(=O)c2ccc3c(c2)nc(C2CC2)n3Cc2cccc3c2OC(F)(F)O3)cc1 | < 100
2 | CCS(=O)(=O)c1ccc(CNC(=O)c2ccc3c(c2)nc(C(F)(F)F)n3Cc2cccc3c2OC(F)(F)O3)[n+]([O-])c1 | < 100
3 | CCS(=O)(=O)c1ccc([C@H](CO)NC(=O)c2ccc3c(c2)nc(C2(F)CCC2)n3Cc2cccc3c2OC(F)(F)O3)cc1 | < 100
